What all share (format): biochemical
One assay concerns the target CDK4 (Homo sapiens, UniProt P11802). Put plainly: CDK4 HTRF assay. The following applies: Table E; read-out: CDK4 HTRF/IC50 [umol l − 1].
The target in another assay is hCDK1/B (Homo sapiens, UniProt P06493). The experiment in a line: hCDK1/B assay. The settings on record: Table E; read-out: hCDK1/B/IC50 [umol l − 1].
Assay [1] deals with CDK2/Cyclin-A kinase complex (Homo sapiens, UniProt P24941). Put plainly: CDK2 IMAP fluorescence polarization assay. The settings on record: Table E; read-out: CDK2cyA IMAP/IC50 [umol l − 1]. The text has this:
In order to test the CDK2 activity of the compounds of the invention, the CDK2 assay is a flourescence polarization assay, where the enzyme is a purified active CDK2/Cyclin-A kinase complex and the substrate is a synthesized peptide derived from Histone H1. This assay utilizes the IMAP technology from Molecular Devices. The active CDK2/Cyclin-A complex phosphorylates the peptide substrate, which is conjugated with the TAMRA tag. The phosphorylated site is then recognized by a metal containing molecule that interacts with the TAMRA tag to induce a high flourescence polarization. The compounds that inhibit the CDK2 kinase activity would inhibit the flourescence output of the assay.

This is an account of results in patent US20120207763A1, “PYRROLOPYRIMIDINE COMPOUNDS AND THEIR USES” (ASTEX THERAPEUTICS LIMITED, priority 2006, published 2012).

Values joined by “and” are separate entries in the source; they are usually repeats but may differ in a detail not shown here. Equal entries are not always repeated.

hCDK1/B, sequence (P06493 whole entry): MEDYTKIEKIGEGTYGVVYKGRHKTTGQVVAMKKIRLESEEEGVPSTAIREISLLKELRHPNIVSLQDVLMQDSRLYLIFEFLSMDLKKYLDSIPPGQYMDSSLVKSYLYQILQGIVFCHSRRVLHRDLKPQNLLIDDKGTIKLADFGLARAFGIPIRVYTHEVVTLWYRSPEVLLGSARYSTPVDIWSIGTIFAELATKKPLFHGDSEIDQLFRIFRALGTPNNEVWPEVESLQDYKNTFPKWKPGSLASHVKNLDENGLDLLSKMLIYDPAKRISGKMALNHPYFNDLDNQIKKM
hCDK1/B, sequence (P14635 whole entry partner): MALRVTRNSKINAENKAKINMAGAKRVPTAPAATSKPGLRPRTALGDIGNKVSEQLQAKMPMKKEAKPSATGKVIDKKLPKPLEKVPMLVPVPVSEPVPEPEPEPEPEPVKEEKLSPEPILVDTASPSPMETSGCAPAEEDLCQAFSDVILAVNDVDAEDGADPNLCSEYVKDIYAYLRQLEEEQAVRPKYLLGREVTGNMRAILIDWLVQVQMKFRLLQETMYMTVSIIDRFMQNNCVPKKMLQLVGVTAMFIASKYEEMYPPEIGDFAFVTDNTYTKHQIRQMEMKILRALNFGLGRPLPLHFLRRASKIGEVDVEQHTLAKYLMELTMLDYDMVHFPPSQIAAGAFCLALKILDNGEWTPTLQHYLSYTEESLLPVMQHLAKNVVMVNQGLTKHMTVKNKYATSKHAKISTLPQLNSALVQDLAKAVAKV
CDK4, sequence (P11802 whole entry): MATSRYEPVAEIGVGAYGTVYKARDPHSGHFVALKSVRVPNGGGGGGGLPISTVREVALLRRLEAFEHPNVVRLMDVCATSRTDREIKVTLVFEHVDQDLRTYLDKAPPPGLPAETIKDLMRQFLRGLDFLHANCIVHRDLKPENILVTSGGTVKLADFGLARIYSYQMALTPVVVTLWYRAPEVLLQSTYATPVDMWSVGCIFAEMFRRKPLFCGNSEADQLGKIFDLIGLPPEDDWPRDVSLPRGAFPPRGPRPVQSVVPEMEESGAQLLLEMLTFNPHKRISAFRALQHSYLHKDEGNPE
CDK4, sequence (P24385 whole entry partner): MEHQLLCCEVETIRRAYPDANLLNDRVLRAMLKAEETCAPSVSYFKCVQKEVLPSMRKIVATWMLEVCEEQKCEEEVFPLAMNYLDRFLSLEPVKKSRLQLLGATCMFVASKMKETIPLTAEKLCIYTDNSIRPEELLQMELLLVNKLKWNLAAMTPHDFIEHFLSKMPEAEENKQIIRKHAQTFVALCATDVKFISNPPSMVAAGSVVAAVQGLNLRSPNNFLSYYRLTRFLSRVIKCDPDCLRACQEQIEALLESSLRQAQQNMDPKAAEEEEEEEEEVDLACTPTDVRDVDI

As to `Cc1cn(C2CCCC2)c2nc(Nc3ccc(N4CCOCC4)cc3)ncc12` [Example 305], the IC50 at CDK4 is > 10 µM; on hCDK1/B it was < 10 µM; in assay [1] it was < 10 µM.
Consider `CCC(CC)n1c(C(=O)Nc2cccc(C(F)(F)F)c2)cc2cnc(Nc3ccc(N4CCNCC4)cc3)nc21` [Example 350], for which the figures for the IC50 (on CDK4; at hCDK1/B; in assay [1]) were < 1 µM, > 10 µM and > 15 µM, respectively.
The corresponding values for `Cc1c(C#N)n(C2CCCC2)c2nc(Nc3ccc(N4CCC(N(C)C)CC4)cc3)ncc12` [Example 395] are < 1 µM, < 1 µM and < 1 µM.
Take `CCC(CC)n1c(C(=O)Nc2ccccn2)cc2cnc(Nc3ccc(N4CCNCC4)cc3)nc21` [Example 351]: the IC50 was < 1 µM on CDK4, < 10 µM at hCDK1/B and < 10 µM in assay [1].
Take `CCC(CC)n1c(CNc2cc(C)[nH]n2)cc2cnc(Nc3ccc(N4CCN(C(C)=O)CC4)cc3)nc21` [Example 372]: the IC50 is < 10 µM on hCDK1/B and < 1 µM in assay [1].
For the compound `Cc1c(-c2cnco2)n(C2CCCC2)c2nc(Nc3ccc(CN4CCNCC4)cn3)ncc12` [Example 403], the IC50 on CDK4 is < 1 µM; at hCDK1/B, < 10 µM; in assay [1] it was < 10 µM.
`CC1CCC(n2ccc3cnc(Nc4ccc(N5CCNCC5)cc4)nc32)C1` (stereo not drawn) [Example 239]: the figures for the IC50 (on CDK4; on hCDK1/B; in assay [1]) were < 1 µM, < 1 µM and < 10 µM, respectively.
Turning to `CCN(CC)c1ccc(Nc2ncc3c(C)cn(C4CCCC4)c3n2)cc1` [Example 457], the IC50 (on CDK4; at hCDK1/B; in assay [1]) was > 10 µM throughout.
For `CCC(CC)n1c(CNc2cccnc2)cc2cnc(Nc3ccc(N4CCN(C(C)=O)CC4)cc3)nc21` [Example 369], the IC50 (on hCDK1/B; in assay [1]) was < 10 µM throughout.
In the case of `Cc1c(-c2cnco2)n(C2CCCC2)c2nc(Nc3ccc(N4CCNCC4)cc3)ncc12` [Example 398], the IC50 (on CDK4; on hCDK1/B; in assay [1]) was < 1 µM in each case.
With `CCC(CC)n1c(C(=O)Nc2cccc(C(C)(C)C)c2)cc2cnc(Nc3ccc(N4CCNCC4)cc3)nc21` [Example 358], the values for the IC50 (at CDK4; at hCDK1/B; in assay [1]) were < 1 µM, > 15 µM and > 15 µM, respectively.
`CN(C)C(=O)c1cc2cnc(Nc3ccc(CN4CCOCC4)cc3)nc2n1C1CCCC1` [Example 340]: the IC50 on CDK4 was < 1 µM; on hCDK1/B, < 10 µM; in assay [1], < 10 µM.
Turning to `CN(C)C(=O)c1cc2cnc(Nc3ccc(N4CCN(C(=O)OC(C)(C)C)CC4)cc3)nc2n1C1CCCC1` [Example 463], the IC50 on CDK4 is < 1 µM; on hCDK1/B, < 10 µM; in assay [1], < 10 µM.
Consider `CCC(CC)n1c(CNCc2ccco2)cc2cnc(Nc3ccc(N4CCN(C(C)=O)CC4)cc3)nc21` [Example 449], for which the IC50 (at hCDK1/B; in assay [1]) was < 10 µM each time.
For the compound `Cc1cn(C2CCCC2)c2nc(Nc3ccc(CO)cc3)ncc12` [Example 466], the IC50 (on hCDK1/B; in assay [1]) was < 10 µM each time.
Regarding `Cc1cn(C2CCCC2)c2nc(Nc3ccncn3)ncc12` [Example 304], the IC50 (on CDK4; on hCDK1/B; in assay [1]) was > 10 µM each time.
Turning to `Cc1cn(C2CCCC2)c2nc(Nc3ccc(N4CCCCC4)nc3)ncc12` [Example 284], the figures for the IC50 (at CDK4; on hCDK1/B; in assay [1]) were > 10 µM, > 15 µM and > 15 µM, respectively.
In the case of `CCC(CC)n1c(C(=O)Nc2ccc(C)cc2)cc2cnc(Nc3ccc(N4CCNCC4)cc3)nc21` [Example 348], the IC50 at CDK4 was < 1 µM; on hCDK1/B it was > 15 µM; in assay [1] it was > 15 µM.
On to `CCC(CC)n1c(C(=O)Nc2ccc(C(F)(F)F)cc2)cc2cnc(Nc3ccc(N4CCNCC4)cc3)nc21` [Example 359], for which the figures for the IC50 (on CDK4; on hCDK1/B; in assay [1]) were < 1 µM, < 10 µM and < 10 µM, respectively.
Consider `Cc1c(-c2cnco2)n(C2CCCCCC2)c2nc(Nc3ccc(N4CCNCC4)cn3)ncc12` [Example 400], for which the IC50 (at CDK4; on hCDK1/B; in assay [1]) was < 1 µM in each case.
With `CN(C)C(=O)c1cc2cnc(Nc3ccc(C4CCNCC4)cc3)nc2n1C1CCCC1` [Example 341], the IC50 at CDK4 was < 1 µM; at hCDK1/B, < 10 µM; in assay [1], > 10 µM.
In the case of `CCC(CC)n1c(CNc2ccon2)cc2cnc(Nc3ccc(N4CCN(C(C)=O)CC4)cc3)nc21` [Example 371], the values for the IC50 (on hCDK1/B; in assay [1]) were < 1 µM and < 10 µM, respectively.
The corresponding values for `Cc1cn(C2CCCC2)c2nc(Nc3ccc(C(=O)N4CCOCC4)cc3)ncc12` [Example 292] are < 10 µM and < 10 µM.
In the case of `Cc1cn(C2CCCC2)c2nc(Nc3ccc(CN4CCOCC4)cc3)ncc12` [Example 313], the results for the IC50 (on CDK4; on hCDK1/B; in assay [1]) were < 1 µM, < 10 µM and < 10 µM, respectively.
For the compound `CN(C)C(=O)c1cc2cnc(NCc3ccc(N4CCN(C(=O)OC(C)(C)C)CC4)cc3)nc2n1C1CCCC1` [Example 468], the results for the IC50 (on CDK4; at hCDK1/B; in assay [1]) were > 10 µM, > 15 µM and > 15 µM, respectively.
`Cc1c(C#N)n(C2CCCC2)c2nc(Nc3ccc(N4CCNCC4)cn3)ncc12` [Example 393]: the IC50 is < 1 µM on CDK4, < 10 µM on hCDK1/B and < 10 µM in assay [1].
Consider `CN(C)C(=O)c1cc2cnc(Nc3ccc(CN4CCNCC4)cc3)nc2n1C1CCCC1` [Example 339], for which the IC50 at CDK4 was < 1 µM; at hCDK1/B, > 10 µM; in assay [1], > 10 µM.
`CCC(CC)n1c(C(=O)Nc2cccnc2)cc2cnc(Nc3ccc(N4CCNCC4)cc3)nc21` [Example 352]: the IC50 on CDK4 was < 1 µM; on hCDK1/B, < 10 µM; in assay [1] it was > 10 µM.
As for `Cc1cn(C2CCCC2)c2nc(Nc3ccc(N4CCNCC4)cc3)ncc12` [Example 266], the figures for the IC50 on CDK4 and on hCDK1/B were < 1 µM and < 10 µM, respectively.
As to `c1cc(N2CCNCC2)ccc1Nc1ncc2ccn(C3CCCCCC3)c2n1` [Example 232], the IC50 was > 10 µM and < 1 µM on CDK4; > 10 µM on hCDK1/B.
Take `Cc1cn(C2CCC(O)C2)c2nc(Nc3ccc(CN4CCOCC4)cc3)ncc12` (stereo not drawn) [Example 315]: the IC50 was < 1 µM at CDK4, < 10 µM at hCDK1/B and < 1 µM in assay [1].
With `CCC(CC)n1c(CNCCc2cc3ccccc3[nH]2)cc2cnc(Nc3ccc(N4CCN(C(C)=O)CC4)cc3)nc21` [Example 368], the values for the IC50 (on CDK4; at hCDK1/B; in assay [1]) were < 1 µM, < 10 µM and < 1 µM, respectively.
As to `Cc1cn(C2CCCC2)c2nc(Nc3ccc(N(C)C)cc3)ncc12` [Example 311], the IC50 (on hCDK1/B; in assay [1]) was > 10 µM throughout.
With `CN(C)C(=O)c1cc2cnc(Nc3ccc(N4CCNCC4)cc3)nc2n1C1CCCC1` [Example 338], the IC50 at CDK4 was < 1 µM; at hCDK1/B, < 10 µM; in assay [1], < 10 µM.
On to `Cc1cn(C2CCCC2)c2nc(Nc3ccc4[nH]ncc4c3)ncc12` [Example 281], for which the IC50 (on hCDK1/B; in assay [1]) was < 10 µM in each case.
Consider `Cc1cn(C2CCCC2)c2nc(NN3CCN(C)CC3)ncc12` [Example 306], for which the IC50 (on CDK4; on hCDK1/B; in assay [1]) was > 10 µM each time.
Consider `Cc1cn(C2CCCC2)c2nc(Nc3ccc(N4CCCCC4)cc3)ncc12` [Example 278], for which the IC50 (on hCDK1/B; in assay [1]) was > 10 µM in each case.
Turning to `CCC(CC)n1c(C(=O)Nc2ccc(CN3CCN(C)CC3)cc2)cc2cnc(Nc3ccc(N4CCNCC4)cc3)nc21` [Example 354], the IC50 (on hCDK1/B; in assay [1]) was > 15 µM throughout.
In the case of `CC(=O)c1c(C)c2cnc(Nc3ccc(N4CCNCC4)cn3)nc2n1C1CCCCCC1` [Example 389], the IC50 at CDK4 was < 1 µM; at hCDK1/B it was > 10 µM; in assay [1] it was < 10 µM.
Consider `Cc1c(-c2cnco2)n(C2CCCC2)c2nc(Nc3ccc(CN4CCNCC4)cc3)ncc12` [Example 402], for which the IC50 (on CDK4; on hCDK1/B; in assay [1]) was < 1 µM in each case.
As for `CCC(CC)n1c(C(=O)Nc2ccc(C(C)(C)C)cc2)cc2cnc(Nc3ccc(N4CCNCC4)cc3)nc21` [Example 349], the IC50 (at hCDK1/B; in assay [1]) was > 15 µM in each case.
For the compound `CCC(CC)n1c(CNC2CCCC2)cc2cnc(Nc3ccc(N4CCN(C(C)=O)CC4)cc3)nc21` [Example 370], the IC50 (at hCDK1/B; in assay [1]) was < 10 µM throughout.
`Cc1cn(C2CCCC2)c2nc(Nc3ccc(N4CCNCC4)cn3)ncc12` [Example 267]: at hCDK1/B, the IC50 is > 10 µM.
`Cc1cn(C2CCCC2)c2nc(Nc3ccc(CN4CCN(C(=O)OC(C)(C)C)CC4)cc3)ncc12` [Example 462]: the IC50 (on hCDK1/B; in assay [1]) was > 15 µM in each case.
Consider `CN(C)C(=O)c1cc2cnc(NCc3ccc(N4CCNCC4)cc3)nc2n1C1CCCC1` [Example 467], for which the IC50 (at hCDK1/B; in assay [1]) was > 15 µM each time.
`Cc1cn(C2CCCC2)c2nc(Nc3ccc(N4CCOCC4)cn3)ncc12` [Example 302]: the IC50 (at hCDK1/B; in assay [1]) was > 10 µM throughout.
For `Cc1cn(C2CCCC2)c2nc(Nc3ccc(-n4ccnc4)cc3)ncc12` [Example 312], the IC50 (at hCDK1/B; in assay [1]) was < 10 µM throughout.
`Cc1c(C(=O)N(C)C)n(C2CCCC2)c2nc(Nc3ccc(N4CCNCC4)cn3)ncc12` [Example 392]: the results for the IC50 (on hCDK1/B; in assay [1]) were > 10 µM and < 10 µM, respectively.
